Among the test systems are NCI-H226 lung; DMS 114 small cell lung; OVCAR-3 ovarian; SW-620 colon; DMS 273 small cell lung; SF-539 CNS; LOX IMVI melanoma; SK-MEL-2 melanoma; SNB-78 CNS; RPMI-8226 leukemia; M19-MEL melanoma; NCI/ADR-RES ovarian.
What all share (assay): growth of human tumour cells (NCI), 48 h

Values joined by “and” are separate entries in the source; they are usually repeats but may differ in a detail not shown here. Identical values can stand only once.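 Compound exposure: 48 hours, 5 concentrations, 96-well plates. Here, GI50 denotes the concentration required for 50% inhibition of growth. TGI: total growth inhibition.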 Where a SMILES comes first, the peptide text is derived from it. [ ]: non-standard residue; d: D form. 2Nal = N[CH](Cc1ccc2ccccc2c1)C(=O)O A value given as a limit tells only on which side of the number the result lay.

With `O=C(C#Cc1c[nH]c(=O)[nH]c1=O)c1ccccc1`, the TGI is 63.9 µM in the assay on NCI-H226 lung; 35.4 µM in the assay with DMS 114 small cell lung; 5.99 µM with OVCAR-3 ovarian; 18.9 µM in the assay on SW-620 colon; 28.9 µM in the assay on DMS 273 small cell lung; 14.5 µM in the assay on SF-539 CNS. Moreover, the TGI came out at 16.3 µM with LOX IMVI melanoma; 24.8 µM with SK-MEL-2 melanoma; 38.5 µM with SNB-78 CNS; 30.1 µM in the assay on RPMI-8226 leukemia; 27.1 µM in the assay with M19-MEL melanoma.
As to `CC(NC1CCC[C@H]1O)c1ccccc1` (mixture of isomers), the TGI with NCI-H226 lung, with DMS 114 small cell lung, in the assay on OVCAR-3 ovarian, with SW-620 colon, with DMS 273 small cell lung and in the assay with SF-539 CNS was more than 100 µM throughout. Also, the TGI with LOX IMVI melanoma, in the assay on SK-MEL-2 melanoma, in the assay on SNB-78 CNS, in the assay on RPMI-8226 leukemia and in the assay on M19-MEL melanoma was more than 100 µM each time.
For `C=C(CO)CC(O)c1ccccc1` (stereo not drawn), the TGI with NCI-H226 lung, in the assay on DMS 114 small cell lung, in the assay on OVCAR-3 ovarian, in the assay on SW-620 colon, in the assay with DMS 273 small cell lung and with SF-539 CNS was more than 100 µM in each case. In addition, the TGI in the assay with LOX IMVI melanoma, in the assay on SK-MEL-2 melanoma, in the assay with SNB-78 CNS, with RPMI-8226 leukemia and in the assay on M19-MEL melanoma was more than 100 µM in each case.
For the compound `CNC(=O)OCc1nc(S(C)=O)n(C)c1COC(=O)NC` (stereo not drawn), the TGI in the assay with NCI-H226 lung is more than 100 µM; with DMS 114 small cell lung, more than 56.2 µM; with OVCAR-3 ovarian it was more than 100 µM; in the assay with SW-620 colon, more than 46.4 µM; with NCI/ADR-RES ovarian, more than 100 µM; in the assay with DMS 273 small cell lung, more than 100 µM. Moreover, the TGI was more than 100 µM in the assay with SF-539 CNS; more than 100 µM with LOX IMVI melanoma; more than 100 µM in the assay with SK-MEL-2 melanoma; more than 92.1 µM with SNB-78 CNS; more than 100 µM with RPMI-8226 leukemia; more than 63.2 µM in the assay with M19-MEL melanoma.
Take `CC(NC(=O)C(N)Cc1ccccc1)C(=O)NC(Cc1ccc(O)cc1)C(=O)NC(Cc1c[nH]c2ccccc12)C(=O)NC(CCCCN)C(=O)NC(C(=O)NC(C)C(=O)NC(Cc1ccc2ccccc2c1)C(N)=O)C(C)C` (stereo not drawn) (H-FAYWKVA[2Nal]-NH2; configuration not given here): the TGI in the assay on NCI-H226 lung is more than 12.5 µM; with DMS 114 small cell lung it was 92.6 µM; in the assay with OVCAR-3 ovarian it was > 12.5 µM and 43.2 µM; with SW-620 colon, more than 12.5 µM; in the assay on NCI/ADR-RES ovarian, more than 12.5 µM; in the assay with DMS 273 small cell lung, 54.1 µM. The TGI is > 12.5 µM and 62.4 µM with SF-539 CNS; more than 12.5 µM with LOX IMVI melanoma; > 12.5 µM and 52.1 µM in the assay on SK-MEL-2 melanoma; more than 100 µM in the assay on SNB-78 CNS; > 12.5 µM and 30.4 µM with RPMI-8226 leukemia; 74 µM with M19-MEL melanoma. Moreover, the GI50 is 18.8 µM with OVCAR-3 ovarian, 21.8 µM in the assay with SF-539 CNS, 25.1 µM with SK-MEL-2 melanoma and 16.3 µM in the assay with RPMI-8226 leukemia.
Consider `COc1ccc(C(=O)C(C(=O)C(=O)Nc2nc3ccc(OC)cc3s2)c2ccc(OC)cc2)cc1` (stereo not drawn), for which the TGI in the assay on NCI-H226 lung, in the assay with DMS 114 small cell lung, in the assay on OVCAR-3 ovarian, in the assay on SW-620 colon, in the assay on DMS 273 small cell lung and with SF-539 CNS was more than 100 µM throughout. The TGI with LOX IMVI melanoma, in the assay with SK-MEL-2 melanoma, with SNB-78 CNS, in the assay with RPMI-8226 leukemia and with M19-MEL melanoma was more than 100 µM in each case.
For `CC(=O)Nc1ccc(/C=c2\sc3nnc(/C=C/c4ccccc4)n3c2=O)cc1`, the TGI in the assay with NCI-H226 lung, in the assay on DMS 114 small cell lung, with OVCAR-3 ovarian, with SW-620 colon, in the assay on DMS 273 small cell lung and with SF-539 CNS was more than 50 µM each time. Moreover, the TGI with LOX IMVI melanoma, with SK-MEL-2 melanoma, in the assay on SNB-78 CNS, with RPMI-8226 leukemia and in the assay on M19-MEL melanoma was more than 50 µM each time.

(Values after PubChem BioAssay (NCI).)
